Data as given in ChEMBL document CHEMBL4813989, “Design, synthesis, and biological evaluation of nitroisoxazole-containing spiro[pyrrolidin-oxindole] derivatives as novel glutathione peroxidase 4/mouse double minute 2 dual inhibitors that inhibit breast adenocarcinoma cell proliferation” (Eur J Med Chem, 2021).
Activity calls are given as the source filed them. No cut-off for these calls is given here.

Tests used:
MCF7 [1] = assay: Induction of apoptosis in human MCF7 cells assessed as increase in cleaved caspase-9 level at 2 uM incubated for 48 hrs by Western blot analysis; format: functional, cell-based
[2] = molecular target: T1, E3 ubiquitin-protein ligase Mdm2 (Homo sapiens, UniProt Q00987); assay: Inhibition of MDM2 in human MCF7 cells assessed as increase in p53 accumulation at 0.5 to 2 uM incubated for 48 hrs by Western blot analysis; format: cell-based; settings: dose 0.5-2 µM
Target sequence in this assay (Q00987 whole entry, looked up): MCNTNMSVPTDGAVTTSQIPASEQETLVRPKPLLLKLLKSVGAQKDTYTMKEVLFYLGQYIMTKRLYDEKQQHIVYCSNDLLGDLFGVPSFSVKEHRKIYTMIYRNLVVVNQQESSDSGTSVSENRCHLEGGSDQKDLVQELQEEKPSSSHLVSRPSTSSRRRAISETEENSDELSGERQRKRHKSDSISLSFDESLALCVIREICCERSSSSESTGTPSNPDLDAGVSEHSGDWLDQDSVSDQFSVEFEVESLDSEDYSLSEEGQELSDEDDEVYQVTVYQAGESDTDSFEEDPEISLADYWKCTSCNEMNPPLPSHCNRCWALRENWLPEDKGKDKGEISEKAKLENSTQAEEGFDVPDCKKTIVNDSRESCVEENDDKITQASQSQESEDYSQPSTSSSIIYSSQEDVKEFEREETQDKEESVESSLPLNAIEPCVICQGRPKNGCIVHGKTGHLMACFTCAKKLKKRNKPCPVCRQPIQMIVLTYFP

[3] = molecular target: T2, Phospholipid hydroperoxide glutathione peroxidase GPX4 (Homo sapiens) (UniProt P36969); assay: Binding affinity in GPX4 in human MCF7 cells assessed as increase in stability in 60 and 65 degreeC at 100 uM by cellular thermal shift assay; format: cell-based
T2 sequence (whole entry): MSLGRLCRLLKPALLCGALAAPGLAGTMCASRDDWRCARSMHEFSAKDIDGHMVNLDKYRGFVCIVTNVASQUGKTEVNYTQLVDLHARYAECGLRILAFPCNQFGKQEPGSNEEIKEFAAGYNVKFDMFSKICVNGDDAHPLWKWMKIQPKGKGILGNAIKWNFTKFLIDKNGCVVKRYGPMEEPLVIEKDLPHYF

[4] = molecular target: T1, E3 ubiquitin-protein ligase Mdm2; assay: Inhibition of MDM2 (unknown origin) using peptide as substrate incubated for 30 mins by fluorescence polarization assay
Target sequence in this assay (Q00987 whole entry): as the sequence (Q00987 whole entry, looked up) above

MCF-10A = assay: Cytotoxicity against human MCF-10A cells assessed as reduction in cell viability incubated for 48 hrs by CCK8 assay; format: cell-based
MCF7 [5] = assay: Antiproliferative activity against human MCF7 cells assessed as reduction in cell growth incubated for 48 hrs by CCK8 assay; settings: MCF7, 48 h
MCF7 [6] = assay: Antiproliferative activity against human MCF7 cells assessed as reduction in cell growth incubated for 48 hrs in presence of Fer-1 by CCK8 assay; settings: MCF7, 48 h
[7] = molecular target: T1, E3 ubiquitin-protein ligase Mdm2; assay: Inhibition of MDM2 in human MCF7 cells assessed as increase in MDM2 accumulation at 0.5 to 2 uM incubated for 48 hrs by Western blot analysis; format: cell-based; settings: dose 0.5-2 µM
Target sequence in this assay (Q00987 whole entry, looked up): as the sequence (Q00987 whole entry, looked up) above

[8] = molecular target: T2, Phospholipid hydroperoxide glutathione peroxidase GPX4 (Homo sapiens); assay: Inhibition of GPX4 in human MCF7 cells assessed as increase in GPX4 degradation incubated for 48 hrs by Western blot analysis; format: cell-based; settings: dose 0.1-2 µM
MCF7 [9] = assay: Induction of apoptosis in human MCF7 cells assessed as viable cells at 0.1 uM incubated for 48 hrs by annexin-V-FITC and PI staining based flow cytometry analysis (reference value: 93.1 %); format: functional; settings: read-out: Activity
MCF7 [10] = assay: Induction of apoptosis in human MCF7 cells assessed as early apoptotic cells at 0.1 uM incubated for 48 hrs by annexin-V-FITC and PI staining based flow cytometry analysis (reference value: 1.05 %); format: functional
MCF7 [11] = assay: Induction of apoptosis in human MCF7 cells assessed as late apoptotic cells at 0.1 uM incubated for 48 hrs by annexin-V-FITC and PI staining based flow cytometry analysis (reference value: 2.61 %); format: functional
MCF7 [12] = assay: Induction of apoptosis in human MCF7 cells assessed as necrotic cells at 0.1 uM incubated for 48 hrs by annexin-V-FITC and PI staining based flow cytometry analysis (reference value: 3.21 %); format: functional
MCF7 [13] = assay: Induction of apoptosis in human MCF7 cells assessed as viable cells at 0.5 uM incubated for 48 hrs by annexin-V-FITC and PI staining based flow cytometry analysis (reference value: 93.1 %); format: functional; settings: read-out: Activity
MCF7 [14] = assay: Induction of apoptosis in human MCF7 cells assessed as early apoptotic cells at 0.5 uM incubated for 48 hrs by annexin-V-FITC and PI staining based flow cytometry analysis (reference value: 1.05 %); format: functional
MCF7 [15] = assay: Induction of apoptosis in human MCF7 cells assessed as late apoptotic cells at 0.5 uM incubated for 48 hrs by annexin-V-FITC and PI staining based flow cytometry analysis (reference value: 2.61 %); format: functional
MCF7 [16] = assay: Induction of apoptosis in human MCF7 cells assessed as necrotic cells at 0.5 uM incubated for 48 hrs by annexin-V-FITC and PI staining based flow cytometry analysis (reference value: 3.21 %); format: functional
MCF7 [17] = assay: Induction of apoptosis in human MCF7 cells assessed as viable cells at 1 uM incubated for 48 hrs by annexin-V-FITC and PI staining based flow cytometry analysis (reference value: 93.1 %); format: functional; settings: read-out: Activity
MCF7 [18] = assay: Induction of apoptosis in human MCF7 cells assessed as early apoptotic cells at 1 uM incubated for 48 hrs by annexin-V-FITC and PI staining based flow cytometry analysis (reference value: 1.05 %); format: functional
MCF7 [19] = assay: Induction of apoptosis in human MCF7 cells assessed as late apoptotic cells at 1 uM incubated for 48 hrs by annexin-V-FITC and PI staining based flow cytometry analysis (reference value: 2.61 %); format: functional
MCF7 [20] = assay: Induction of apoptosis in human MCF7 cells assessed as necrotic cells at 1 uM incubated for 48 hrs by annexin-V-FITC and PI staining based flow cytometry analysis (reference value: 3.21 %); format: functional
MCF7 [21] = assay: Induction of apoptosis in human MCF7 cells assessed as viable cells at 1 uM incubated for 48 hrs in presence of Fer-1 by annexin-V-FITC and PI staining based flow cytometry analysis (reference value: 93.1 %); format: functional; settings: read-out: Activity
MCF7 [22] = assay: Induction of apoptosis in human MCF7 cells assessed as early apoptotic cells at 1 uM incubated for 48 hrs in presence of Fer-1 by annexin-V-FITC and PI staining based flow cytometry analysis (reference value: 1.05 %); format: functional
MCF7 [23] = assay: Induction of apoptosis in human MCF7 cells assessed as necrotic cells at 1 uM incubated for 48 hrs in presence of Fer-1 by annexin-V-FITC and PI staining based flow cytometry analysis (reference value: 3.21 %); format: functional
MCF7 [24] = assay: Induction of ROS production in human MCF7 cells at 1 uM by DCFH-DA assay; format: functional, cell-based
MCF7 [25] = assay: Induction of LPO production in human MCF7 cells at 1 uM by C11-BODIPY staining based confocal laser scanning microscopic analysis; format: functional, cell-based
MCF7 [26] = assay: Induction of ROS production in human MCF7 cells at 1 uM in presence of Fer-1 by DCFH-DA assay; format: functional, cell-based
MCF7 [27] = assay: Induction of LPO production in human MCF7 cells at 1 uM in presence of Fer-1 by C11-BODIPY staining based confocal laser scanning microscopic analysis; format: functional, cell-based
MCF7 [28] = assay: Antitumor activity against human MCF7 cells xenografted in BALB/c mouse assessed as tumor growth inhibition at 25 to 50 mg/kg, ip administered once for 17 days; format: functional, organism-based; settings: dose 25-50 mg/kg, time 17.0 day
[29] = Toxicity in BALB/c mouse xenografted with human MCF7 cells assessed as effect on body weight at 25 to 50 mg/kg, ip administered once for 17 days; format: organism-based; settings: in vivo, 408 h, dose 25-50 mg/kg, time 17 day
MCF7 [30] = assay: Antitumor activity against human MCF7 cells xenografted in BALB/c mouse assessed as reduction in Ki-67 expression at 25 to 50 mg/kg, ip administered once for 17 days by immunohistochemical analysis; format: functional, organism-based; settings: dose 25-50 mg/kg, time 17.0 day
[31] = molecular target: E3 ubiquitin-protein ligase Mdm2 (Mus musculus) (UniProt P23804); assay: In vivo inhibition of MDM2 in human MCF7 cells xenografted in BALB/c mouse assessed as increase in p53 expression at 25 to 50 mg/kg, ip administered once for 17 days by immunofluorescence analysis; format: functional, organism-based; settings: dose 25-50 mg/kg, time 17.0 day
E3 ubiquitin-protein ligase Mdm2 (Mus musculus), sequence (P23804 whole entry): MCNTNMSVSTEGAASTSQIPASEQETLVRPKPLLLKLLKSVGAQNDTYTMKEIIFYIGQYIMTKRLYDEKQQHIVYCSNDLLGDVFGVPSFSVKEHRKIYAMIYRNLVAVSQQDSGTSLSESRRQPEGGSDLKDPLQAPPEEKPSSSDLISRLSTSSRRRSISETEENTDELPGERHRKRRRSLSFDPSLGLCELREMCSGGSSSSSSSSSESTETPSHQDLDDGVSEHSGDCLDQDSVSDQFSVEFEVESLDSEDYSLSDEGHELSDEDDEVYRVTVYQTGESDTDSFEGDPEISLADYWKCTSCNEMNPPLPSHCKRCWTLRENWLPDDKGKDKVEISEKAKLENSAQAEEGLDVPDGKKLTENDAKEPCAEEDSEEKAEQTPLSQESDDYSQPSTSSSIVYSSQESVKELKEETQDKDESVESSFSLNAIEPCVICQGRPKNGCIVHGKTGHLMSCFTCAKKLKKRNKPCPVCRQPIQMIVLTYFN

Mus musculus = assay: In vivo induction of apoptosis in human MCF7 cells xenografted in BALB/c mouse assessed as increase in TUNEL expression at 25 to 50 mg/kg, ip administered once for 17 days by immunohistochemical analysis; format: functional, organism-based; settings: dose 25-50 mg/kg, time 17.0 day
MCF7 [32] = assay: Induction of apoptosis in human MCF7 cells assessed as late apoptotic cells at 1 uM incubated for 48 hrs in presence of Fer-1 by annexin-V-FITC and PI staining based flow cytometry analysis (reference value: […] %); format: functional

Cc1noc([C@@H]2[C@@H](c3ccccc3)[C@H](C(F)(F)F)N[C@@]23C(=O)Nc2cc(Cl)ccc23)c1[N+](=O)[O-]
Activity (MCF7 [1]): Active
inhibition [2]: Active
Activity [3]: Active
Ki [4]: 240 nM
Activity (MCF-10A): Non-Toxic
IC50 (MCF7 [5]): 120 nM
IC50 (MCF7 [6]): 13500 nM
inhibition [7]: Active
inhibition [8]: Active
viability at 0.1 µM (MCF7 [9]): 91.3%
Activity (MCF7 [10]): 1.39%
Activity (MCF7 [11]): 2.85%
Activity (MCF7 [12]): 4.51%
viability at 0.5 µM (MCF7 [13]): 83.8%
Activity (MCF7 [14]): 7.81%
Activity (MCF7 [15]): 3.16%
Activity (MCF7 [16]): 5.25%
viability at 1 µM (MCF7 [17]): 81.2%
Activity (MCF7 [18]): 11.3%
Activity (MCF7 [19]): 4.91%
Activity (MCF7 [20]): 2.61%
viability at 1 µM (MCF7 [21]): 84%
Activity (MCF7 [22]): 7.98%
Activity (MCF7 [23]): 3.35%
Activity (MCF7 [24]): Active
Activity (MCF7 [25]): Active
Activity (MCF7 [26]): inactive
Activity (MCF7 [27]): inactive
TGI (MCF7 [28]): Active
Activity [29]: Non-Toxic
Activity (MCF7 [30]): Active
inhibition [31]: Active
Activity (Mus musculus): Active
Activity (MCF7 [32]): 4.71%
